Measurements from PubChem BioAssay (NCI).
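Each compound was tested at five concentrations against cells in 96-well plates for 48 hours. The concentration for full growth arrest is given as TGI.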

Tests used:
Test in all cases: growth of human tumour cells (NCI), 48 h
[1] = tested on: 786-0 renal
[2] = tested on: A498 renal
[3] = tested on: A549 NSCLC
[4] = tested on: ACHN renal
[5] = tested on: BT-549 breast
[6] = tested on: CAKI-1 renal
[7] = tested on: CCRF-CEM leukemia
[8] = tested on: COLO 205 colon
[9] = tested on: EKVX NSCLC
[10] = tested on: HCC-2998 colon
[11] = tested on: HCT-116 colon
[12] = tested on: HCT-15 colon
[13] = tested on: HL-60(TB) leukemia
[14] = tested on: HOP-62 NSCLC
[15] = tested on: HT29 colon
[16] = tested on: IGROV1 ovarian
[17] = tested on: K-562 leukemia
[18] = tested on: KM12 colon
[19] = tested on: LOX IMVI melanoma
[20] = tested on: M14 melanoma
[21] = tested on: MALME-3M melanoma
[22] = tested on: MCF7 breast
[23] = tested on: MDA-MB-231 breast
[24] = tested on: MDA-MB-435
[25] = tested on: MDA-N
[26] = tested on: MOLT-4 leukemia
[27] = tested on: NCI-H226 lung
[28] = tested on: NCI-H23 lung
[29] = tested on: NCI-H522 lung
[30] = tested on: NCI/ADR-RES ovarian
[31] = tested on: OVCAR-3 ovarian
[32] = tested on: OVCAR-4 ovarian
[33] = tested on: OVCAR-5 ovarian
[34] = tested on: OVCAR-8 ovarian
[35] = tested on: PC-3 prostate
[36] = tested on: RPMI-8226 leukemia
[37] = tested on: SF-295 CNS
[38] = tested on: SF-539 CNS
[39] = tested on: SK-MEL-2 melanoma
[40] = tested on: SK-MEL-28 melanoma
[41] = tested on: SK-MEL-5 melanoma
[42] = tested on: SK-OV-3 ovarian
[43] = tested on: SN12C renal
[44] = tested on: SNB-75 CNS
[45] = tested on: SR leukemia
[46] = tested on: SW-620 colon
[47] = tested on: T-47D breast
[48] = tested on: TK-10 renal
[49] = tested on: U251 CNS
[50] = tested on: UACC-257 melanoma
[51] = tested on: UACC-62 melanoma
[52] = tested on: UO-31 renal

O=C(O)c1ccccc1SCc1cccc2c(=O)c3ccc(Cl)cc3oc12
TGI [1]: > 50 µM
TGI [2]: > 50 µM
TGI [3]: > 50 µM
TGI [4]: > 50 µM
TGI [5]: > 50 µM
TGI [6]: > 50 µM
TGI [7]: > 50 µM
TGI [8]: > 50 µM
TGI [9]: > 50 µM
TGI [10]: > 50 µM
TGI [11]: > 50 µM
TGI [12]: > 50 µM
TGI [13]: 27.7 µM
TGI [14]: 47.3 µM
TGI [15]: > 50 µM
TGI [16]: > 50 µM
TGI [17]: > 50 µM
TGI [18]: > 50 µM
TGI [19]: > 50 µM
TGI [20]: > 50 µM
TGI [21]: 44.9 µM
TGI [22]: > 50 µM
TGI [23]: > 50 µM
TGI [24]: > 50 µM
TGI [25]: > 50 µM
TGI [26]: > 50 µM
TGI [27]: > 50 µM
TGI [28]: > 50 µM
TGI [29]: > 50 µM
TGI [30]: > 50 µM
TGI [31]: > 50 µM
TGI [32]: > 50 µM
TGI [33]: > 50 µM
TGI [34]: > 50 µM
TGI [35]: > 50 µM
TGI [36]: > 50 µM
TGI [37]: > 50 µM
TGI [38]: > 50 µM
TGI [39]: > 50 µM
TGI [40]: > 50 µM
TGI [41]: > 50 µM
TGI [42]: > 50 µM
TGI [43]: > 50 µM
TGI [44]: > 50 µM
TGI [45]: > 50 µM
TGI [46]: > 50 µM
TGI [47]: > 50 µM
TGI [48]: > 50 µM
TGI [49]: > 50 µM
TGI [50]: > 50 µM
TGI [51]: > 50 µM
TGI [52]: > 50 µM
